# According to patent publication US20230085307A1, “PYRIDAZINONE COMPOUND AND HERBICIDE” (NISSAN CHEMICAL CORPORATION, priority 2019, published 2023):
# What was measured:
# [1] = system: barnyard grass; assay: Test Example 5: herbicidal effect by foliage application, plastic box (Table 20, symbol H); type: in vivo, barnyard grass (Echinochloa crus-galli); conditions: foliage application after 14-day growth, evaluated three weeks after application; for herbicidal effect on H: barnyard grass (evaluation grade 0-5): 320 g/ha
# How it was run: (§1)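 Plants were sown into sterilized diluvial soil under about 1.5 cm cover and kept in a greenhouse at 25° C. to 30° C. Fourteen days on, foliage received an even spray of the diluted emulsion. Herbicidal or crop effect was judged three weeks afterwards.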
# [2] = system: velvetleaf; assay: Test Example 5: herbicidal effect by foliage application, plastic box (Table 20, symbol M); type: in vivo, velvetleaf (Abutilon theophrasti); conditions: foliage application after 14-day growth, evaluated three weeks after application; for herbicidal effect on M: velvetleaf (evaluation grade 0-5): 320 g/ha
# How it was run: as §1
# [3] = system: southern crabgrass; assay: Test Example 4: herbicidal effect by soil treatment (Table 19, symbol F); type: in vivo, southern crabgrass (Digitaria ciliaris); conditions: amount of applied herbicide 320 g/ha
# How it was run: (§2)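 In this soil treatment, the formulated compound reached the seeds only through the soil: seeds were buried about 1.5 cm deep in sterilized diluvial soil, then the diluted emulsion was sprayed over the surface. After three weeks at 25° C. to 30° C. in a greenhouse, effects were graded on criteria from an earlier test.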
# [4] = system: green foxtail; assay: Test Example 5: herbicidal effect by foliage application, plastic box (Table 20, symbol G); type: in vivo, green foxtail (Setaria viridis); conditions: foliage application after 14-day growth, evaluated three weeks after application; for herbicidal effect on G: green foxtail (evaluation grade 0-5): 320 g/ha
# How it was run: as §1
# [5] = system: lambsquarters; assay: Test Example 4: herbicidal effect by soil treatment (Table 19, symbol O); type: in vivo, lambsquarters (Chenopodium album); conditions: amount of applied herbicide 320 g/ha
# How it was run: as §2
# [6] = system: barnyard grass; assay: Test Example 3: herbicidal effect by foliage application, Wagner pot (Table 18, symbol H); type: in vivo, barnyard grass (Echinochloa crus-galli); conditions: 320 g/ha
# How it was run: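 Plants were sown in alluvial soil held under 0.1–0.5 cm standing water and grown 14 days in a greenhouse at 25–30 °C. An emulsifiable formulation, water-diluted to the set dose, was then sprayed onto the foliage, and effects were scored three weeks later using previously defined criteria.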
# [7] = system: oval-leafed pondweed; assay: Test Example 2: herbicidal activity, application during weed generation under submerged conditions (Table 17, symbol C); type: in vivo, oval-leafed pondweed (Monochoria vaginalis); conditions: AAH 320 g/ha; application during weed generation, submerged conditions
# How it was run: (§3)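 Mixed weed seedlings in alluvial soil under a 4 cm water layer, greenhouse-grown at 25–30° C. Compound given as a diluted emulsion into the floodwater at the 1–2 leaf stage; response graded after three weeks.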
# [8] = system: late watergrass; assay: Test Example 2: herbicidal activity, application during weed generation under submerged conditions (Table 17, symbol A); type: in vivo, late watergrass (Echinochloa oryzicola); conditions: AAH 320 g/ha; application during weed generation, submerged conditions
# How it was run: as §3
# [9] = system: blackgrass; assay: Test Example 4: herbicidal effect by soil treatment (Table 19, symbol J); type: in vivo, blackgrass (Alopecurus myosuroides); conditions: amount of applied herbicide 320 g/ha
# How it was run: as §2
# [10] = system: Italian ryegrass; assay: Test Example 5: herbicidal effect by foliage application, plastic box (Table 20, symbol K); type: in vivo, Italian ryegrass (Lolium multiflorum); conditions: foliage application after 14-day growth, evaluated three weeks after application; for herbicidal effect on K: Italian ryegrass (evaluation grade 0-5): 320 g/ha
# How it was run: as §1
# [11] = system: blackgrass; assay: Test Example 5: herbicidal effect by foliage application, plastic box (Table 20, symbol J); type: in vivo, blackgrass (Alopecurus myosuroides); conditions: foliage application after 14-day growth, evaluated three weeks after application; for herbicidal effect on J: blackgrass (evaluation grade 0-5): 320 g/ha
# How it was run: as §1
# [12] = system: barnyard grass; assay: Test Example 4: herbicidal effect by soil treatment (Table 19, symbol H); type: in vivo, barnyard grass (Echinochloa crus-galli); conditions: amount of applied herbicide 320 g/ha
# How it was run: as §2
# [13] = system: chickweed; assay: Test Example 5: herbicidal effect by foliage application, plastic box (Table 20, symbol P); type: in vivo, common chickweed (Stellaria media); conditions: foliage application after 14-day growth, evaluated three weeks after application; for herbicidal effect on P: chickweed (evaluation grade 0-5): 320 g/ha
# How it was run: as §1
# [14] = system: persian speedwell; assay: Test Example 4: herbicidal effect by soil treatment (Table 19, symbol R); type: in vivo, Persian speedwell (Veronica persica); conditions: amount of applied herbicide 320 g/ha
# How it was run: as §2
# [15] = system: velvetleaf; assay: Test Example 4: herbicidal effect by soil treatment (Table 19, symbol M); type: in vivo, velvetleaf (Abutilon theophrasti); conditions: amount of applied herbicide 320 g/ha
# How it was run: as §2
# [16] = system: late watergrass; assay: Test Example 1: herbicidal activity, application before weed generation under submerged conditions (Table 16, symbol A); type: in vivo, late watergrass (Echinochloa oryzicola); conditions: amount of applied herbicide 320 g/ha
# How it was run: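 Submerged Wagner pots (alluvial soil, 4 cm water) sown with weed seeds and planted with 2.5-leaf rice seedlings; emulsifiable concentrate diluted in water applied to water surface on sowing day. Held in greenhouse at 25-30 °C; injury scored 0-5 by herbicidal rate after three weeks.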
# [17] = amount of applied herbicide 320 g/ha
Structure (SMILES),herbicidal effect on H: barnyard grass (evaluation grade 0-5) [1],herbicidal effect on M: velvetleaf (evaluation grade 0-5) [2],"Herbicidal effect by soil treatment, F: southern crabgrass [3]",herbicidal effect on G: green foxtail (evaluation grade 0-5) [4],"Herbicidal effect by soil treatment, O: lambsquarters [5]",herbicidal effect on barnyard grass (H) [6],"herbicidal effect rating, C: oval-leafed pondweed [7]","herbicidal effect rating, A: late watergrass [8]","Herbicidal effect by soil treatment, J: blackgrass [9]",herbicidal effect on K: Italian ryegrass (evaluation grade 0-5) [10],herbicidal effect on J: blackgrass (evaluation grade 0-5) [11],"Herbicidal effect by soil treatment, H: barnyard grass [12]",herbicidal effect on P: chickweed (evaluation grade 0-5) [13],"Herbicidal effect by soil treatment, R: persian speedwell [14]","Herbicidal effect by soil treatment, M: velvetleaf [15]","Herbicidal effect, A: late watergrass [16]",also measured
CCCC(=O)Oc1c(C)nn(C)c(=O)c1-c1c(-c2ccc(OC)cc2)sc2c(F)cccc12 [4-006],4 (Herbicidal rate of 70% or more and less than 90%),5 (Herbicidal rate of 90% or more (almost completely withered)),0 (Herbicidal rate of 5% or less (almost no effect)),4 (Herbicidal rate of 70% or more and less than 90%),4 (Herbicidal rate of 70% or more and less than 90%),5 (Herbicidal rate of 90% or more (almost completely withered)),2 (Herbicidal rate of 20% or more and less than 40%),3 (Herbicidal rate of 40% or more and less than 70%),0 (Herbicidal rate of 5% or less (almost no effect)),4 (Herbicidal rate of 70% or more and less than 90%),1 (Herbicidal rate of 5% or more and less than 20%),4 (Herbicidal rate of 70% or more and less than 90%),5 (Herbicidal rate of 90% or more (almost completely withered)),0 (Herbicidal rate of 5% or less (almost no effect)),1 (Herbicidal rate of 5% or more and less than 20%),3 (Herbicidal rate of 40% or more and less than 70%),–
CCCOc1ccc(-c2sc3c(Cl)cccc3c2-c2c(OC(=O)CCC)c(C)nn(C)c2=O)cc1 [4-028],5 (Herbicidal rate of 90% or more (almost completely withered)),5 (Herbicidal rate of 90% or more (almost completely withered)),0 (Herbicidal rate of 5% or less (almost no effect)),3 (Herbicidal rate of 40% or more and less than 70%),4 (Herbicidal rate of 70% or more and less than 90%),5 (Herbicidal rate of 90% or more (almost completely withered)),0 (Herbicidal rate of 5% or less (almost no effect)),3 (Herbicidal rate of 40% or more and less than 70%),0 (Herbicidal rate of 5% or less (almost no effect)),2 (Herbicidal rate of 20% or more and less than 40%),0 (Herbicidal rate of 5% or less (almost no effect)),0 (Herbicidal rate of 5% or less (almost no effect)),5 (Herbicidal rate of 90% or more (almost completely withered)),1 (Herbicidal rate of 5% or more and less than 20%),1 (Herbicidal rate of 5% or more and less than 20%),3 (Herbicidal rate of 40% or more and less than 70%),–
CCCC(=O)Oc1c(C)nn(C)c(=O)c1-c1c(-c2ccc(SC)cc2)sc2c(F)cccc12 [4-051],4 (Herbicidal rate of 70% or more and less than 90%),5 (Herbicidal rate of 90% or more (almost completely withered)),0 (Herbicidal rate of 5% or less (almost no effect)),3 (Herbicidal rate of 40% or more and less than 70%),4 (Herbicidal rate of 70% or more and less than 90%),5 (Herbicidal rate of 90% or more (almost completely withered)),0 (Herbicidal rate of 5% or less (almost no effect)),3 (Herbicidal rate of 40% or more and less than 70%),0 (Herbicidal rate of 5% or less (almost no effect)),4 (Herbicidal rate of 70% or more and less than 90%),4 (Herbicidal rate of 70% or more and less than 90%),0 (Herbicidal rate of 5% or less (almost no effect)),5 (Herbicidal rate of 90% or more (almost completely withered)),5 (Herbicidal rate of 90% or more (almost completely withered)),0 (Herbicidal rate of 5% or less (almost no effect)),4 (Herbicidal rate of 70% or more and less than 90%),–
Cc1nn(C)c(=O)c(-c2c(-c3ccccc3OC(F)(F)F)sc3c(Cl)cccc23)c1O [4-076],–,–,0 (Herbicidal rate of 5% or less (almost no effect)),–,3 (Herbicidal rate of 40% or more and less than 70%),4 (Herbicidal rate of 70% or more and less than 90%),0 (Herbicidal rate of 5% or less (almost no effect)),3 (Herbicidal rate of 40% or more and less than 70%),0 (Herbicidal rate of 5% or less (almost no effect)),–,–,0 (Herbicidal rate of 5% or less (almost no effect)),–,3 (Herbicidal rate of 40% or more and less than 70%),2 (Herbicidal rate of 20% or more and less than 40%),0 (Herbicidal rate of 5% or less (almost no effect)),"Herbicidal effect by foliage application, H: barnyard grass [1, 17]: 3 (Herbicidal rate of 40% or more and less than 70%); Herbicidal effect by foliage application, M: velvetleaf [2, 17]: 4 (Herbicidal rate of 70% or more and less than 90%); Herbicidal effect by foliage application, G: green foxtail [4, 17]: 4 (Herbicidal rate of 70% or more and less than 90%); Herbicidal effect by foliage application, K: Italian ryegrass [10, 17]: 0 (Herbicidal rate of 5% or less (almost no effect)); Herbicidal effect by foliage application, J: blackgrass [11, 17]: 0 (Herbicidal rate of 5% or less (almost no effect)); Herbicidal effect by foliage application, P: chickweed [13, 17]: 5 (Herbicidal rate of 90% or more (almost completely withered))"
